This is an account of results in PubChem BioAssay AID206 (DTP/NCI, 2004).

Several values for one entry are separate records, joined by “and”; a condition that tells them apart may be missing. Equal values may be shown once. Results filed as inconclusive are left out.

The assay concerns nude mice, HT29 intrarenal xenograft, tumor weight T/C. Description: NCI In Vivo Anticancer Drug Screen. Data for tumor model HT29;CX-1 Human Adenocarcinoma (MER+) (intrarenal inoculation) in NU/NU Swiss (nude) mice. As to conditions: endpoint: mean tumor weight change, higher = larger tumour. In outline: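 T/C = treated-group value ÷ vehicle-group value, using tumor size or survival.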

Setting [1] is: dose: 300.0 mg/kg/injection, schedule: Q04DX004 (sc), vehicle: Klucel (hydroxypropylcellulose) (HPC).
Setting [2] is: dose: 300.0 mg/kg/injection, schedule: Q04DX004 (sc), vehicle: saline with Tween-80.
The mark [3] stands for this setting: dose: 600.0 mg/kg/injection, schedule: Q04DX004 (sc), vehicle: saline with Tween-80.
[4] abbreviates: dose: 1200.0 mg/kg/injection, schedule: Q04DX004 (sc), vehicle: saline with Tween-80.

As to `CC(C)(C)C1CCCCC1`, the T/C under setting [1] was 94 % of control; the T/C (dose: 600.0 mg/kg/injection, schedule: Q04DX004 (sc), vehicle: Klucel (hydroxypropylcellulose) (HPC)) is 97 % of control; the T/C (dose: 1200.0 mg/kg/injection, schedule: Q04DX004 (sc), vehicle: Klucel (hydroxypropylcellulose) (HPC)) is 56 % of control; the T/C (dose: 2400.0 mg/kg/injection, schedule: Q04DX004 (sc), vehicle: Klucel (hydroxypropylcellulose) (HPC)) is 55 % of control.
With `OC(CBr)C(O)C(O)C(O)CBr` (stereo not given), the T/C by setting is: (dose: 15.0 mg/kg/injection, schedule: Q01DX010 (sc), vehicle: Klucel (hydroxypropylcellulose) (HPC)) 82 % of control; (dose: 30.0 mg/kg/injection, schedule: Q01DX010 (sc), vehicle: Klucel (hydroxypropylcellulose) (HPC)) 44 % of control; (dose: 120.0 mg/kg/injection, schedule: Q01DX010 (sc), vehicle: Klucel (hydroxypropylcellulose) (HPC)) 43 % of control; (dose: 200.0 mg/kg/injection, schedule: Q01DX010 (sc), vehicle: Klucel (hydroxypropylcellulose) (HPC)) 101 % of control; (dose: 400.0 mg/kg/injection, schedule: Q01DX010 (sc), vehicle: Klucel (hydroxypropylcellulose) (HPC)) 59 % of control.
For the compound `CC1(C)CC(=O)C(CSC(=O)c2ccccc2)C(=O)C1`, the T/C reads like this: (dose: 25.0 mg/kg/injection, schedule: Q01DX010 (sc), vehicle: Klucel (hydroxypropylcellulose) (HPC)) 79 % of control; (dose: 100.0 mg/kg/injection, schedule: Q01DX010 (sc), vehicle: Klucel (hydroxypropylcellulose) (HPC)) 120 % of control.
On to `N/C=N/O`, for which, for the setting “dose: 400.0 mg/kg/injection, schedule: Q01DX010 (sc), vehicle: saline”, the T/C is 111 % of control.
As for `C=CCc1cn(C2CC(O)C(CO)O2)c(=O)[nH]c1=O` (stereo not given), the T/C is 71 % of control (dose: 300.0 mg/kg/injection, schedule: Q04DX004 (sc), vehicle: saline); 99 % of control (dose: 600.0 mg/kg/injection, schedule: Q04DX004 (sc), vehicle: saline); 64 % of control (dose: 1200.0 mg/kg/injection, schedule: Q04DX004 (sc), vehicle: saline); 71 % of control (dose: 2400.0 mg/kg/injection, schedule: Q04DX004 (sc), vehicle: saline).
As to `O=[Te]=O`, the T/C by setting is: (dose: 25.0 mg/kg/injection, schedule: Q04DX004 (sc), vehicle: Klucel (hydroxypropylcellulose) (HPC)) 170 % of control; (dose: 50.0 mg/kg/injection, schedule: Q04DX004 (sc), vehicle: Klucel (hydroxypropylcellulose) (HPC)) 74 % of control.
With `CCCCCCCC(=O)OCC(=O)[C@]1(O)Cc2c(O)c3c(c(O)c2[C@@H](OC2CC(N)C(O)C(C)O2)C1)C(=O)c1c(OC)cccc1C3=O` (stereo not given in full), the T/C was 90 % of control (dose: 2.0 mg/kg/injection, schedule: Q04DX004 (sc), vehicle: suspension in saline); 222 % of control (dose: 4.0 mg/kg/injection, schedule: Q01DX010 (sc), vehicle: suspension in saline); 50 % of control (dose: 4.0 mg/kg/injection, schedule: Q04DX004 (sc), vehicle: suspension in saline); 106 % of control (dose: 5.0 mg/kg/injection, schedule: Q04DX004 (sc), vehicle: suspension in saline); 67 % of control (dose: 8.0 mg/kg/injection, schedule: Q01DX010 (sc), vehicle: suspension in saline); 42 % of control (dose: 8.0 mg/kg/injection, schedule: Q04DX004 (sc), vehicle: suspension in saline). Moreover, the T/C by setting is: (dose: 10.0 mg/kg/injection, schedule: Q04DX004 (sc), vehicle: suspension in saline) 29 % of control; (dose: 16.0 mg/kg/injection, schedule: Q04DX004 (sc), vehicle: suspension in saline) 33 % of control; (dose: 20.0 mg/kg/injection, schedule: Q04DX004 (sc), vehicle: suspension in saline) 42 % of control.
Turning to `O=C(O)CCCc1ccc(N(CCCl)CCCl)cc1`, the T/C runs as follows: (dose: 0.13 mg/kg/injection, schedule: Q04DX004 (ip), vehicle: Klucel (hydroxypropylcellulose) (HPC)) 88 % of control; (dose: 0.2 mg/kg/injection, schedule: Q04DX004 (ip), vehicle: Klucel (hydroxypropylcellulose) (HPC)) 109 % of control; (dose: 0.3 mg/kg/injection, schedule: Q04DX004 (ip), vehicle: Klucel (hydroxypropylcellulose) (HPC)) 83 % of control.
In the case of `CCCCC(=O)OCC(=O)[C@]1(O)Cc2c(O)c3c(c(O)c2[C@@H](OC2CC(NC(=O)C(F)(F)F)C(O)C(C)O2)C1)C(=O)c1c(OC)cccc1C3=O` (stereo not given in full), the T/C reads like this: (dose: 64.0 mg/kg/injection, schedule: Q01DX010 (sc), vehicle: distilled water + Tween-80) 61 % of control; (dose: 128.0 mg/kg/injection, schedule: Q01DX010 (sc), vehicle: distilled water + Tween-80) 83 % of control; (dose: 256.0 mg/kg/injection, schedule: Q01DX010 (sc), vehicle: distilled water + Tween-80) 46 % of control.
As for `NC(=S)N/N=C/c1ccc(OC(=O)COc2ccccc2)cn1`, the T/C (dose: 150.0 mg/kg/injection, schedule: Q04DX004 (sc), vehicle: saline with Tween-80) was 102 % of control; the T/C under setting [2] is 94 % of control; the T/C under setting [3] was 155 % of control; the T/C under setting [4] is 38 % of control.
With `Oc1c(Cl)cc(C(c2cc(Cl)c(O)c(Cl)c2)C(c2cc(Cl)c(O)c(Cl)c2)c2cc(Cl)c(O)c(Cl)c2)cc1Cl`, the T/C (dose: 450.0 mg/kg/injection, schedule: Q04DX004 (sc), vehicle: Klucel (hydroxypropylcellulose) (HPC)) was 104 % of control; the T/C (dose: 900.0 mg/kg/injection, schedule: Q04DX004 (sc), vehicle: Klucel (hydroxypropylcellulose) (HPC)) was 95 % of control; the T/C (dose: 1800.0 mg/kg/injection, schedule: Q04DX004 (sc), vehicle: Klucel (hydroxypropylcellulose) (HPC)) is 96 % of control.
On to `Nc1nc2c(C(=O)N3CCCC3)nnn2c2ccccc12`, for which the T/C (dose: 75.0 mg/kg/injection, schedule: Q04DX004 (sc), vehicle: saline with Tween-80) was 157 % of control.
Consider `CCCCCCCCCCCCCC#CC(=O)O`, for which the T/C is, setting by setting: (dose: 37.5 mg/kg/injection, schedule: Q04DX004 (sc), vehicle: saline with Tween-80) 117 % of control; under setting [2], 104 % of control.
Consider `O=C1C(=O)c2ccccc2C(O)=C1CC=C(Cl)Cl`, for which the T/C runs as follows: (dose: 100.0 mg/kg/injection, schedule: Q01DX010 (sc), vehicle: water) 183 % of control; (dose: 400.0 mg/kg/injection, schedule: Q01DX010 (sc), vehicle: water) 74 % of control and 213 % of control.
For the compound `COc1ccc(-c2cc(C(=O)Nc3cc(C(F)(F)F)cc(C(F)(F)F)c3)c3ccccc3n2)cc1`, the T/C by setting is: (dose: 300.0 mg/kg/injection, schedule: Q04DX004 (ip), vehicle: DMSO) 115 % of control; (dose: 600.0 mg/kg/injection, schedule: Q04DX004 (ip), vehicle: DMSO) 50 % of control.
Turning to `COc1ccc(C(=O)/C(Br)=C/C(=O)O)cc1`, the T/C by setting is: (dose: 12.5 mg/kg/injection, schedule: Q01DX010 (sc), vehicle: saline) 73 % of control; (dose: 25.0 mg/kg/injection, schedule: Q01DX010 (sc), vehicle: saline) 122 % of control; (dose: 50.0 mg/kg/injection, schedule: Q01DX010 (sc), vehicle: saline) 56 % of control.
With `COc1ccc2[nH]c3c(c2c1)CCNC3CC(C)CCC=C(C)C` (stereo not given), the T/C reads like this: (dose: 37.5 mg/kg/injection, schedule: Q04DX004 (sc), vehicle: Klucel (hydroxypropylcellulose) (HPC)) 47 % of control; (dose: 150.0 mg/kg/injection, schedule: Q04DX004 (sc), vehicle: Klucel (hydroxypropylcellulose) (HPC)) 62 % of control; under setting [1], 55 % of control.
`N=C(N)SCc1c2ccccc2c(CSC(=N)N)c2ccccc12`: the T/C is, setting by setting: (dose: 25.0 mg/kg/injection, schedule: Q04DX004 (sc), vehicle: suspension in saline) 69 % of control; (dose: 50.0 mg/kg/injection, schedule: Q04DX004 (sc), vehicle: suspension in saline) 72 % of control; (dose: 100.0 mg/kg/injection, schedule: Q04DX004 (sc), vehicle: suspension in saline) 52 % of control; (dose: 200.0 mg/kg/injection, schedule: Q04DX004 (sc), vehicle: suspension in saline) 75 % of control.
As for `COc1cc([C@@H]2c3cc4c(c(O)c3C[C@H]3COC(=O)[C@@H]32)OCO4)cc(OC)c1O`, the T/C (dose: 1.0 mg/kg/injection, schedule: Q01DX010 (sc), vehicle: saline) was 92 % of control; the T/C (dose: 2.0 mg/kg/injection, schedule: Q01DX010 (sc), vehicle: saline) is 75 % of control; the T/C (dose: 4.0 mg/kg/injection, schedule: Q01DX010 (sc), vehicle: saline) was 106 % of control.
On to `COc1cc2c(c(OC)c1OC)-c1c(cc3c(c1OC)OCO3)CC(C)C(C)(O)C2OC(=O)c1ccccc1` (stereo not given), for which the T/C (dose: 75.0 mg/kg/injection, schedule: Q04DX004 (sc), vehicle: saline + alcohol) is 63 % of control.
With `[I][Hg][CH2]C1COC([CH2][Hg][I])CO1` (stereo not given), the T/C is, setting by setting: under setting [2], 54 % of control; under setting [3], 55 % of control; under setting [4], 57 % of control; (dose: 2400.0 mg/kg/injection, schedule: Q04DX004 (sc), vehicle: saline with Tween-80) 32 % of control.
